Measurements from patent US20240216362A1, “BENZOTHIAZOLE AND QUINOLINE DERIVATIVES FOR USE IN TREATING KAWASAKI DISEASE” (Shanghai Yao Yuan Biotechnology Co., Ltd., priority 2021, published 2024).
Where a name gives a salt, the structure may show the parent alone.

How the values were obtained:
[1] = molecular target: ALPK1 (Homo sapiens (Human), UniProt Q96QP1); experiment: ALPK1 in vitro kinase assay (HTRF, TIFA phosphorylation); assay type: biochemical; conditions: ADP-Heptose activated ALPK1, TIFA substrate
ALPK1, sequence (Q96QP1 whole entry): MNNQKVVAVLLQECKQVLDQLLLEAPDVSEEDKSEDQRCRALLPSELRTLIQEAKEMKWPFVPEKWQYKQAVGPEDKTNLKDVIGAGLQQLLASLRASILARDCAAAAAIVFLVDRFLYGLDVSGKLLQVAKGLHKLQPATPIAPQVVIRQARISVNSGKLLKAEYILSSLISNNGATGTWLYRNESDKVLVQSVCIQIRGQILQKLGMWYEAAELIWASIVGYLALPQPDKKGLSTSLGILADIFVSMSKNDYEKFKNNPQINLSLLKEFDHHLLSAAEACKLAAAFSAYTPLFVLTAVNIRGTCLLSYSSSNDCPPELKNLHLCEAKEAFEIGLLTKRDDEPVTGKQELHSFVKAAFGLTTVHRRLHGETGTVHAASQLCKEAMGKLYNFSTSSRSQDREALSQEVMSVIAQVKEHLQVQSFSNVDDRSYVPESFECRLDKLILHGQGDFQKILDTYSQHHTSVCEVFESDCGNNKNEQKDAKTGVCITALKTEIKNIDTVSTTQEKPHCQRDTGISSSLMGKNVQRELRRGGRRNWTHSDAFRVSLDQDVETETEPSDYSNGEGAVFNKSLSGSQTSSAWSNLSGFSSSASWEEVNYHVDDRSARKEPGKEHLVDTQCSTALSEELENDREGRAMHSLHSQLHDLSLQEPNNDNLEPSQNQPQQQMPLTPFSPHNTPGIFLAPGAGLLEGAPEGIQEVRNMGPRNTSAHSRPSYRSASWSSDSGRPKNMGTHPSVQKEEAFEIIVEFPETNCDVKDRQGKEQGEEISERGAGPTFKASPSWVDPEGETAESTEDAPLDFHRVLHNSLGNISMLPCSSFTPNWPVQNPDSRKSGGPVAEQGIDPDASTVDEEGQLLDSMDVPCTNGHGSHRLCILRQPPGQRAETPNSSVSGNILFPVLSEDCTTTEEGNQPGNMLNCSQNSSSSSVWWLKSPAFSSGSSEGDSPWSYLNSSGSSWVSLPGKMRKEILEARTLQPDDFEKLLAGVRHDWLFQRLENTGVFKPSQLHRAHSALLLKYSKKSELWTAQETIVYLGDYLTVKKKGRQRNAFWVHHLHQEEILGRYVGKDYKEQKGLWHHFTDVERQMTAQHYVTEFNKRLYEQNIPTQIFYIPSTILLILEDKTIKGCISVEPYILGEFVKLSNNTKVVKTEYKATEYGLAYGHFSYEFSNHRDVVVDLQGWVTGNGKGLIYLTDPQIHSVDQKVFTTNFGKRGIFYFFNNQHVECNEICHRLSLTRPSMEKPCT
Experimental: ALPK1 kinase activity was measured in an in vitro assay using ADP-Heptose as the ALPK1 ligand and activator of its kinase activity and TIFA protein as the ALPK1 phosphorylation substrate. Since phosphorylated TIFA proteins oligomerize, Homogeneous Time-Resolved Fluorescence (HTRF) was used to measure protein:protein interaction between HA-tagged TIFA proteins as an indicator of TIFA phosphorylation.
In brief, dose-response studies were performed with HEK293 cells cultured in Dulbecco's Modified Eagle Medium (DMEM) supplemented 10% fetal bovine serum (FBS, Hyclone™) containing antibiotics (pen/strep, G418) in 384-well assay plates. Each well contained 0.1 mg TIFA, ALPK1 (2 nM final concentration in reaction mixture) and kinase buffer (100 mM of HEPES pH 7.4, 4 mM DTT, 40 mM MgCl2, 20 mM of β-Glycerol phosphate disodium salt, 0.4 mM of Na3VO4, 0.16 mg/mL). […]
For HTRF, samples were incubated with a Tb cryptate-labeled anti-HA antibody for capturing HA-tagged proteins according to the manufacturer's instructions (PerkinElmer™, CisBio™) and the fluorescence signal was quantified (Tecan Infinite F NANO+). HTRF signals were calculated as the HTRF ratio (ratio of fluorescence measured at 665 nm and 620 nm)×104 (thereby using the signal at 620 nm as an internal standard).
IC50 values were determined using 3- or 4-parameter logistic equation using GraphPad Prism version 6.00. […]

[2] = molecular target: hALPK1-V1092A (transiently transfected HEK293 cells) (Homo sapiens (Human), UniProt Q96QP1, V1092A); experiment: Inhibition of IL-8 secretion in cells expressing V1092A ALPK1 mutant; assay type: cell-based; conditions: 24 hours, relative to wild-type HEK293 cells
hALPK1-V1092A (transiently transfected HEK293 cells), sequence (Q96QP1 whole entry V1092A): as the sequence (Q96QP1 whole entry) above, with V1092A counted along it
Experimental: (§1) HEK293 cells were cultured as described above prior to transient transfection with either empty vector or an expression vector encoding (i) human ALPK1 (hALPK1), (ii) hALPK1 with the T237M activating mutation (hALPK1-T237M) (iii) hALPK1 with the V1092A activating mutation (hALPK1-V1092A), or (iv) a kinase dead ALPK1 mutant (hALPK1-T237M-D1194S). Transfection was performed according to manufacturer's protocols (Lipofectamine™ 3000, ThermoFisher). Transfected cells were selected, seeded onto 96-well plates and treated with serial dilutions of the test compounds for 6.5 hr. Following treatment, cell viability was determined using a luminescent cell viability assay (Cell Counting-Lite Assay or “CCL Assay” from Vazyme Biotech Co., Ltd.) and cell free supernatants were collected and analyzed for IL-8 protein by IL-8 ELISA as described above. […] As shown in the figure, very little IL-8 was detectable in cells transfected with any of the empty vector, hALPK1, or the kinase dead hALPK1 mutant. In contrast, both of the activating mutations in hALPK1 induced significant IL-8 secretion.
For the V1092A mutant study shown in Table 4, HEK293 cells were transiently transfected with hALPK1-V1092A or hALPK1 (wildtype) expression vectors and then treated with test compounds for 24 hours. Fresh medium and compound were added at 18 hours. Cell viability and IL-8 secretion were determined 6 hours after the second addition of compound, using the CCL assay and IL-8 ELISA as described above.

[3] = molecular target: T237M hALPK1 mutant (HEK293 A2 cells) (Homo sapiens (Human), UniProt Q96QP1, T237M); experiment: Inhibition of IL-8 secretion in cells expressing T237M ALPK1 mutant; assay type: cell-based; conditions: 40 hours, relative to wild-type HEK293 cells
T237M hALPK1 mutant (HEK293 A2 cells), sequence (Q96QP1 whole entry T237M): as the sequence (Q96QP1 whole entry) above, with T237M counted along it
Experimental: as §1
Next, we tested a representative set of compounds for inhibition of IL-8 secretion in cells expressing each of the activating ALPK1 mutants. T237M and V1092A. […] For the T237M mutant study, we produced an HEK293 cell line (“A2”) stably expressing the T237M hALPK1 mutant. A2 cells were cultured in the presence of test compound (6 uM) for 40 hours total. Fresh medium and compound were added at 24 hours. Cell viability and IL-8 secretion were determined 16 hours after the second addition of compound, using the CCL assay and IL-8 ELISA as described above.

[4] = tested on: ALPK1-dependent gene expression in PBMC; experiment: Inhibition of ALPK1 in PBMC cells (gene mRNA); assay type: in vivo, Sprague-Dawley (SD) rats; conditions: SD rats, 10 mpk oral, 2 h before ALPK1 agonist ip, blood 3 h after agonist, compared with vehicle group
From the text: We examined whether ALPK1 inhibitors can suppress ALPK1-dependent activation of a set of such genes in rats. Animals were orally administered compound T007 and ALPK1-dependent gene expression was induced by intraperitoneal administration of the ALPK1 agonist, D-glycero-D-manno-6-fluoro-heptose-lo-S-ADP. PBMCs were collected and gene expression analyzed, as described in more detail below.
Thirty-six male Sprague-Dawley (SD) rats were randomly divided into six groups. A first control group (“normal”) was administered vehicle (0.5% MC) orally, followed 2 hours later with PBS administered by intraperitoneal injection (ip). A second control group (“vehicle”) was administered vehicle (0.5% MC) orally, followed 2 hours later by ip administration of the ALPK1 agonist, D-glycero-D-manno-6-fluoro-heptose-1β-S-ADP (50 ppk). Treatment groups were administered ALPK1 inhibitors (10 mpk) orally, followed 2 hours later by ip administration of the ALPK1 agonist. […] RNA was isolated and samples were analyzed by RT-PCR for gene expression. […] Quantitative PCR was conducted using AceQ qPCR SYBR Green Master Mix Kit (Vazvme, Nanjing, China) on the QuantStudio 5 applied biosystems (Thermo scientific, USA). Relative mRNA levels were calculated using the 2−ΔΔCT method, and HPRT was used as a reference for gene expression normalization. […]

[5] = tested on: ALPK1-dependent innate immunity gene expression; experiment: Inhibition of ALPK1 in coronary artery, aorta and heart muscle (innate immunity gene mRNA); assay type: in vivo, Sprague-Dawley (SD) rats; conditions: SD rats, 40 mpk oral, 2 h before ALPK1 agonist ip, tissue 3 h after agonist, compared with vehicle group
From the text: To examine if ALPK1 inhibitors can suppress innate immunity genes activated upon ALPK1 activation, SD rats were orally administered compound T007 and gene expression of innate immunity genes was activated by intraperitoneal administration of the ALPK1 agonist, D-glycero-D-manno-6-fluoro-heptose-1β-S-ADP. The coronary artery, aorta and heart muscle tissues were examined for inhibition of ALPK1 inhibitors on innate immunity gene expression.
Twenty male Sprague-Dawley (SD) rats were randomly divided into four groups. A first control group (“normal”) was administered vehicle (0.5% MC) orally, followed 2 hours later with PBS administered by intraperitoneal injection (ip). A second control group (“vehicle”) was administered vehicle (0.5% MC) orally, followed 2 hours later by ip administration of the ALPK1 agonist, D-glycero-D-manno-6-fluoro-heptosc-1β-S-ADP (50 ppk). Treatment groups were administered ALPK1 inhibitors (40 mpk) orally, followed 2 hours later by ip administration of the ALPK1 agonist. The coronary artery, cardiac muscle and aorta from each group were collected 3 hours after administration of the ALPK1 agonist. RNA was isolated and samples were analyzed by RT-PCR for expression of MCP-1 (CCL-2), CCL-7, CXCL-1, CXCL-11, CXCL-10, IL-1β, CCL-5, TNF-α, and IL-6 mRNA. Briefly, total RNA was extracted following the protocol of the Rneasy Mini Kit (QIAGEN, Germany). Messenger RNA was reverse transcribed to cDNA using HiScript Q RT SuperMix for qPCR Kit (Vazyme, Nanjing, China). Quantitative PCR was conducted using AceQ qPCR SYBR Green Master Mix Kit (Vazyme, Nanjing, China) on the QuantStudio 5 applied biosystems (Thermo scientific, USA). Relative mRNA levels were calculated using the 2−ΔΔCT method, and HPRT was used as a reference for gene expression normalization. Data were presented as the gene fold change against their respective expression in the control arm.

[6] = tested on: IL1β mRNA induced by ALPK1 activation in THP-1-derived macrophages; experiment: PMA-differentiated THP-1 cell based assay (IL1β mRNA); conditions: Homo sapiens; PMA-differentiated THP-1 cells, ALPK1 agonist stimulation 4 h; read-out: IC50 for inhibition of IL1β mRNA
Experimental: Peripheral blood mononuclear cells (PBMCs) from Kawasaki patients show activation of ALPK1-TIFA-IL10μ pathway. We evaluated the ability of ALPK1 inhibitors to suppress IL1β levels following ALPK1 activation in THP-1-derived macrophage cells in which the ALPK1-TIFA-IL1P pathway is activated by an ALPK1 agonist, D-glycero-D-manno-6-fluoro-heptose-1β-S-A DP.
THP-1 cells were cultured in RPMI 1640 containing 10% heat inactivated FBS, penicillin (100 units/ml) and streptomycin (100 μg/ml), and maintained in a humidified incubator with 95% atmospheric air and 5% CO2. Prior to the experiment, THP-1 cells were seeded into 24-well flat-bottom plate at a cell density of […]. Phorbol myristate acetate (PMA; 50 ng/ml) was used to treat THP-1 cells for 48 h, and then THP-1-derived macrophages were obtained. Following treatment THP-1 cells were pretreated with serially diluted compounds for 2 hours and then stimulated with D-glycero-D-manno-6-fluoro-heptose-1β-S-ADP for 4 h. […] The mRNA expression levels IL1β were detected by SYBR green gene expression assays. […] Relative expression was calculated by comparing to vehicle control and the values were plotted as fold induction. All activity results were expressed as the mean of triplicate determinations. IC50 was determined from dose response curve using Prism Software, version 6.00 from GraphPad Software.

Compound	inhibition at 6 µM [2] [%]	inhibition at 6 µM [3] [%]	other results
O=C(Nc1nc2c(F)cc(F)cc2s1)c1c(F)cc(N2CCNCC2)cc1F [Compound T035, N-(4,6-difluorobenzo[d]thiazol-2-yl)-2,6-difluoro-4-(piperazin-1-yl)benzamide]			IC50 [1]: 1340 nM
C#Cc1cccc2sc(NC(=O)c3c(C)cc(N4CCNCC4)cc3F)nc12 [Compound T050, N-(4-ethynylbenzo[d]thiazol-2-yl)-2-fluoro-6-methyl-4-(piperazin-1-yl)benzamide]			IC50 [1]: 15 nM
COc1cccc2sc(NC(=O)c3c(F)cc(N4CCNCC4)cc3F)nc12 [Compound T017, 2,6-difluoro-N-(4-methoxybenzo[d]thiazol-2-yl)-4-(piperazin-1-yl)benzamide hydrochloride]	50		
C#Cc1cccc2sc(NC(=O)c3c(Cl)cc(N4CCNCC4)cc3Cl)nc12 [Compound T048, 2,6-dichloro-N-(4-ethynylbenzo[d]thiazol-2-yl)-4-(piperazin-1-yl)benzamide]		66	
COc1cccc2ccc(NC(=O)c3c(F)cc(N4CCNCC4)cc3F)nc12 [Compound Q001, 2,6-difluoro-N-(8-methoxyquinolin-2-yl)-4-(piperazin-1-yl)benzamide]	68	69	
C#Cc1cccc2sc(NC(=O)c3c(F)cc(N4CCNCC4)cc3F)nc12 [Compound T007, N-(4-ethynylbenzo[d]thiazol-2-yl)-2,6-difluoro-4-(piperazin-1-yl)benzamide]	95	91	mRNA expression of PBMC CXCL-1 [4]: significantly decreased; mRNA expression of aorta IL-6, CXCL-1, CXCL-10, CCL-2 [5]: significantly decreased; mRNA expression of cardiac muscle TNF-α, IL-1b, IL-6, CXCL-1, CXCL-10, CXCL-11, CCL-2 and CCL-5 [5]: significantly decreased; mRNA expression of coronary artery TNF-α, CXCL-1, CCL-2 and CCL-7 [5]: significantly decreased; IC50 [6]: 21 nM
COc1cccc2ccc(NC(=O)c3c(F)ccc(N4CCNCC4)c3F)nc12 [Compound Q005, 2,6-difluoro-N-(8-methoxyquinolin-2-yl)-3-(piperazin-1-yl)benzamide]	52		
